Results taken from US20130150384A1, “METHOD FOR TREATMENT OF BRAIN CANCERS” (KOREA INSTITUTE OF SCIENCE AND TECHNOLOGY, priority 2008, published 2013).
Entries after “also recorded” stand apart in the source; their conditions may differ.

How the values were obtained:
GBM cells = assay: Ca^2+ imaging of Fura2-AM loaded GBM cells; type: cell-based, human
Description: Error bars represent SEM.
It is hypothesized that these molecules existing in the Ca^2+ release pathway serve as a potential molecular target in controlling migration and invasion of GBM.

glioma = assay: Soft agar assay (colony formation); type: cell-based, human; settings: 0.5, 1, 2, 5, or 10 mM caffeine, 14 to 17 days
Experimental: Cells (1×10^4) were seeded into 6-well plates in a soft agar (0.3%, Difco) overlaying a 0.6% base agar. […] Cells were incubated at 37 for 14 to 17 days to allow colonies to develop. Afterward colonies were stained with 0.05% cresyl violet and photographed. […] Each assay was done in triplicate (n=3)

[1] = test system: human cell line (SH-SY5Y, ATCC); assay: Block against bradykinin-induced intracellular Ca^2+ release in human glioblastoma cell line; type: cell-based; settings: 10 mM caffeine, 10 μM bradykinin
HEK293T cell line = assay: Block against TFLLR-induced intracellular Ca^2+ release in HEK293T; type: cell-based; settings: 10 mM caffeine, 30 μM TFLLR
U87MG cells = assay: Xenograft tumor growth assay; type: in vivo, athymic mice (Balb/c nu/nu); settings: caffeine 1 mg/ml in drinking water from day 7, subcutaneous U87MG, 4 weeks
Experimental: Five-week-old athymic mice (Balb/c nu/nu) were obtained from Central Lab. Animal Inc. (Japan). For the xenograft tumor growth assay, U87MG cells (3×10^5 cells/150 ul PBS) were injected subcutaneously into the right flanks of the mice (n=5 to 10 mice per group), and the experiment was conducted in triplicate. […] The control animals were given distilled water. Tumor mass was estimated twice per week for 4 weeks, and tumor volumes were calculated by the formula: […]

human U87MG = assay: Survival in orthotropic implantation model; settings: 1 mg/ml caffeine containing drinking water, intracranial U87MG

**Q.** `COc1ccc2c(c1)CC[C@@H]1[C@@H]2CC[C@]2(C)[C@@H](NCCCCCCN3C(=O)C=CC3=O)CC[C@@H]12` [U73122] was tested. Which “release of Ca^2+ from intracellular stores in response to activation of GPCRs and RTKs” value (GBM cells) did it give?
**A.** completely inhibited

**Q.** For `Cn1c(=O)c2c(ncn2C)n(C)c1=O` [caffeine], which “proliferation / anchorage-independent growth (colony numbers)” value (glioma) is on record?
**A.** reduced the anchorage-independent growth of glioma in vitro, in a dose dependent manner; also recorded: significantly inhibited

**Q.** What about the “intracellular Ca^2+ release” value [1] of the same molecule?
**A.** blocked

**Q.** And the “intracellular Ca^2+ release” value (HEK293T cell line)?
**A.** blocked

**Q.** And the “increase of tumor mass” value (U87MG cells)?
**A.** significantly inhibited

**Q.** What about the survival rate (human U87MG) of the same molecule?
**A.** significantly increase the survival rate

**Q.** For `C/C=C(/C)C(=O)O[C@H]1C(C)=C2[C@H]([C@@H]1OC(=O)CCCCCCC)[C@@](C)(OC(C)=O)C[C@H](OC(=O)CCC)[C@@]1(O)[C@H]2OC(=O)[C@@]1(C)O` [thapsigargin], which “subsequent increase in [Ca^2+]i by bradykinin after store depletion” value (GBM cells) is on record?
**A.** completely inhibited
